In this assay the target is T1, human MDM2 (GST-hMDM2 1-188), interaction with biotinylated-p53 (1-83) (Homo sapiens, UniProt Q00987).
T1 construct: Amino acid residues 1-188 of human MDM2 were expressed; made in house; host or cells: Escherichia coli
T1 sequence (Q00987 1-188): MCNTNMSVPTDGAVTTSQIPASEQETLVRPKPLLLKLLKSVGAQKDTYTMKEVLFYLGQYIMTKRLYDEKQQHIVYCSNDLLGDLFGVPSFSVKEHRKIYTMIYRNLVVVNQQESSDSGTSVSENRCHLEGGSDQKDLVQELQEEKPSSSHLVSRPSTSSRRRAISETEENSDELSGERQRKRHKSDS
Briefly: improved HTRF assay (HTRF2 assay), inhibition of HDM2-p53 interaction. The class given is binding. The conditions noted are these: 0.2 nM GST-hMDM2, 0.5 nM biotinylated-p53, 100 mM KF. The method, boiled down: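 GST-hMDM2 preincubated 20 min at RT with serially diluted compound, then biotinylated p53 (1-83, E. coli) added for 60 min. Detection with SA-XLent, anti-GST cryptate and KF, equilibrated >4 h; final DMSO 2%. TR-FRET read; % inhibition calculated relative to nutlin-3.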
Take `CC[C@]1(CC(=O)O)O[C@H](c2cccc(Cl)c2)[C@@H](c2ccc(Cl)cc2)N([C@@H](CC(F)(F)F)CS(=O)(=O)C(C)(C)C)C1=O` (single isomer, unassigned) [Example 343, 2-((2R,5R,6R)-4-((S)-1-(tert-Butylsulfonyl)-4,4,4-trifluorobutan-2-yl)-6-(3-chlorophenyl)-5-(4-chlorophenyl)-2-ethyl-3-oxomorpholin-2-yl)acetic acid or 2-((2S,5R,6R)-4-((S)-1-(tert-butylsulfonyl)-4,4,4-trifluorobutan-2-yl)-6-(3-chlorophenyl)-5-(4-chlorophenyl)-2-ethyl-3-oxomorpholin-2-yl)acetic acid]: the IC50 (usually the concentration needed to halve the response being measured) is 1 nM.
The result for `CC[C@@H](CS(=O)(=O)C(C)(C)C)N1C(=O)[C@@H](CCOC)O[C@H](c2cccc(Cl)c2)[C@H]1c1ccc(Cl)cc1` [Example 153, (2R,5R,6R)-4-((S)-1-(tert-butylsulfonyl)butan-2-yl)-6-(3-chlorophenyl)-5-(4-chlorophenyl)-2-(2-methoxyethyl)morpholin-3-one] reads 59 nM; that for `CC[C@@H](CS(=O)(=O)C1CCC1)N1C(=O)[C@@H](CC(=O)O)O[C@H](c2cccc(Cl)c2)[C@H]1c1ccc(Cl)cc1` (single isomer, unassigned) [Example 141, 2-((2R,5R,6R)-6-(3-chlorophenyl)-5-(4-chlorophenyl)-4-((S)-1-(cyclobutylsulfonyl)butan-2-yl)-3-oxomorpholin-2-yl)acetic acid or 2-((2S,5R,6R)-6-(3-chlorophenyl)-5-(4-chlorophenyl)-4-((S)-1-(cyclobutylsulfonyl)butan-2-yl)-3-oxomorpholin-2-yl)acetic acid], 1 nM; that for `O=C(O)C[C@H]1OC(c2cccc(Cl)c2)C(c2ccc(Cl)cc2)N([C@H](CN(c2c(F)cccc2F)S(=O)(=O)C2CC2)C2CC2)C1=O` (single isomer, unassigned) [Example 250], less than 1 nM.
Under `CC(C)(C)S(=O)(=O)C[C@H](C1CC1)N1C(=O)[C@@](C)(CC(=O)O)O[C@H](c2cccc(Cl)c2)[C@H]1c1ccc(Cl)cc1` (single isomer, unassigned) [Example 334, 2-((2R,5R,6R)-4-((S)-2-(tert-Butylsulfonyl)-1-cyclopropylethyl)-6-(3-chlorophenyl)-5-(4-chlorophenyl)-2-methyl-3-oxomorpholin-2-yl)acetic acid or 2-((2S,5R,6R)-4-((S)-2-(tert-butylsulfonyl)-1-cyclopropylethyl)-6-(3-chlorophenyl)-5-(4-chlorophenyl)-2-methyl-3-oxomorpholin-2-yl)acetic acid] stands less than 1 nM.
Under `C[C@H]1CCCN1S(=O)(=O)C[C@H](C1CC1)N1C(=O)[C@@H](CC(=O)O)O[C@H](c2cccc(Cl)c2)[C@H]1c1ccc(Cl)cc1` (single isomer, unassigned) [Example 296, 2-((2R,5R,6R)-6-(3-Chlorophenyl)-5-(4-chlorophenyl)-4-((S)-1-cyclopropyl-2-(((S)-2-methylpyrrolidin-1-yl)sulfonyl)ethyl)-3-oxomorpholin-2-yl)acetic acid or 2-((2S,5R,6R)-6-(3-chlorophenyl)-5-(4-chlorophenyl)-4-((S)-1-cyclopropyl-2-(((S)-2-methylpyrrolidin-1-yl)sulfonyl)ethyl)-3-oxomorpholin-2-yl)acetic acid] stands less than 1 nM; under `CC[C@@H]([C@H](C)S(=O)(=O)C(C)C)N1C(=O)[C@@H](CC(=O)O)O[C@H](c2cccc(Cl)c2)[C@H]1c1ccc(Cl)cc1` (single isomer, unassigned) [Example 413], less than 1 nM.
Compound `CC[C@@H](CN(c1ccccc1F)S(=O)(=O)C1CC1)N1C(=O)[C@@](C)(CC(=O)O)O[C@H](c2cccc(Cl)c2)[C@H]1c1ccc(Cl)cc1` (single isomer, unassigned) [Example 330, 2-((2R,5R,6R)-6-(3-Chlorophenyl)-5-(4-chlorophenyl)-4-((S)-1-(N-(2-fluorophenyl)cyclopropanesulfonamido)butan-2-yl)-2-methyl-3-oxomorpholin-2-yl)acetic acid or 2-((2S,5R,6R)-6-(3-chlorophenyl)-5-(4-chlorophenyl)-4-((S)-1-(N-(2-fluorophenyl)cyclopropanesulfonamido)butan-2-yl)-2-methyl-3-oxomorpholin-2-yl)acetic acid] returned a 50% inhibitory concentration (IC50) of 1 nM.
The result for `CC[C@@H](CN(C)S(=O)(=O)C1CC1)N1C(=O)[C@H](Cc2nnn[nH]2)O[C@H](c2cccc(Cl)c2)[C@H]1c1ccc(Cl)cc1` (single isomer, unassigned) [Example 244, N-((S)-2-((2S,5R,6R)-2-((1H-tetrazol-5-yl)methyl)-6-(3-chlorophenyl)-5-(4-chlorophenyl)-3-oxomorpholino)butyl)-N-methylcyclopropanesulfonamide or N-((S)-2-((2R,5R,6R)-2-((1H-tetrazol-5-yl)methyl)-6-(3-chlorophenyl)-5-(4-chlorophenyl)-3-oxomorpholino)butyl)-N-methylcyclopropanesulfonamide] reads 1 nM; that for `CC(C)(C)S(=O)(=O)C[C@@H](C1CCC1)N1C(=O)[C@@H](CC(=O)O)O[C@H](c2cccc(Cl)c2)[C@H]1c1ccc(Cl)cc1` (single isomer, unassigned) [Example 273, 2-((2R,5R,6R)-4-((R)-2-(tert-Butylsulfonyl)-1-cyclobutylethyl)-6-(3-chlorophenyl)-5-(4-chlorophenyl)-3-oxomorpholin-2-yl)acetic acid or 2-((2S,5R,6R)-4-((R)-2-(tert-butylsulfonyl)-1-cyclobutylethyl)-6-(3-chlorophenyl)-5-(4-chlorophenyl)-3-oxomorpholin-2-yl)acetic acid], 95 nM; that for `CC[C@@H](CS(=O)(=O)C(C)(C)C)N1C(=O)[C@@H](CC(=O)NC#N)O[C@H](c2cccc(Cl)c2)[C@H]1c1ccc(Cl)cc1` [Example 345, 2-((2R,5R,6R)-4-((S)-1-(tert-Butylsulfonyl)butan-2-yl)-6-(3-chlorophenyl)-5-(4-chlorophenyl)-3-oxomorpholin-2-yl)-N-cyanoacetamide], less than 1 nM.
The result for `CC(C)(C)S(=O)(=O)C[C@H](C1CC1)N1C(=O)[C@@H](CC#N)O[C@H](c2cccc(Cl)c2)[C@H]1c1ccc(Cl)cc1` (single isomer, unassigned) [Example 388, 2-((2R,5R,6R)-4-((S)-2-(tert-Butylsulfonyl)-1-cyclopropylethyl)-6-(3-chlorophenyl)-5-(4-chlorophenyl)-3-oxomorpholin-2-yl)acetonitrile or 2-((2S,5R,6R)-4-((S)-2-(tert-butylsulfonyl)-1-cyclopropylethyl)-6-(3-chlorophenyl)-5-(4-chlorophenyl)-3-oxomorpholin-2-yl)acetonitrile] reads 28 nM; that for `CC[C@@H](CN(c1ccccc1F)S(=O)(=O)C1CC1)N1C(=O)[C@@H]([C@@H](C)C(=O)O)O[C@H](c2cccc(Cl)c2)[C@H]1c1ccc(Cl)cc1` (single isomer, unassigned) [Example 255], 4 nM; that for `CC[C@@H]([C@H](C)S(=O)(=O)C(C)C)N1C(=O)[C@@H](CC(=O)O)O[C@H](c2cccc(Cl)c2)[C@H]1c1ccc(Cl)cc1` (single isomer, unassigned) [Example 415], 1 nM.
Under `CC(C)[C@@H](CN(c1ccccc1F)S(=O)(=O)C(C)(C)C)N1C(=O)[C@@H](CC(=O)O)O[C@H](c2cccc(Cl)c2)[C@H]1c1ccc(Cl)cc1` (single isomer, unassigned) [Example 201, 2-((2R,5R,6R)-6-(3-chlorophenyl)-5-(4-chlorophenyl)-4-((S)-1-(N-(2-fluorophenyl)-2-methylpropan-2-ylsulfonamido)-3-methylbutan-2-yl)-3-oxomorpholin-2-yl)acetic acid or 2-((2S,5R,6R)-6-(3-chlorophenyl)-5-(4-chlorophenyl)-4-((S)-1-(N-(2-fluorophenyl)-2-methylpropan-2-ylsulfonamido)-3-methylbutan-2-yl)-3-oxomorpholin-2-yl)acetic acid] stands 2 nM; under `CC(C)S(=O)(=O)C[C@H](C1CC1)N1C(=O)[C@@H](CC(=O)O)O[C@H](c2cccc(Cl)c2)[C@H]1c1ccc(Cl)cc1` (single isomer, unassigned) [Example 157, 2-((2R,5R,6R)-6-(3-chlorophenyl)-5-(4-chlorophenyl)-4-((S)-1-cyclopropyl-2-(isopropylsulfonyl)ethyl)-3-oxomorpholin-2-yl)acetic acid or 2-((2S,5R,6R)-6-(3-chlorophenyl)-5-(4-chlorophenyl)-4-((S)-1-cyclopropyl-2-(isopropylsulfonyl)ethyl)-3-oxomorpholin-2-yl)acetic acid], 1 nM; under `C[C@H]1CCCN1S(=O)(=O)C[C@H](C1CC1)N1C(=O)[C@@H](CC(=O)O)O[C@H](c2cccc(Cl)c2)[C@H]1c1ccc(Cl)cc1` (single isomer, unassigned) [Example 297, 2-((2R,5R,6R)-6-(3-Chlorophenyl)-5-(4-chlorophenyl)-4-((S)-1-cyclopropyl-2-(((S)-2-methylpyrrolidin-1-yl)sulfonyl)ethyl)-3-oxomorpholin-2-yl)acetic acid or 2-((2S,5R,6R)-6-(3-chlorophenyl)-5-(4-chlorophenyl)-4-((S)-1-cyclopropyl-2-(((S)-2-methylpyrrolidin-1-yl)sulfonyl)ethyl)-3-oxomorpholin-2-yl)acetic acid], less than 1 nM.
The compound `CC[C@@H](CS(=O)(=O)C1CCOCC1)N1C(=O)[C@@H](CC(=O)O)O[C@H](c2cccc(Cl)c2)[C@H]1c1ccc(Cl)cc1` (single isomer, unassigned) [Example 186, 2-((2R,5R,6R)-6-(3-chlorophenyl)-5-(4-chlorophenyl)-3-oxo-4-((S)-1-((tetrahydro-2H-pyran-4-yl)sulfonyl)butan-2-yl)morpholin-2-yl)acetic acid or 2-((2S,5R,6R)-6-(3-chlorophenyl)-5-(4-chlorophenyl)-3-oxo-4-((S)-1-((tetrahydro-2H-pyran-4-yl)sulfonyl)butan-2-yl)morpholin-2-yl)acetic acid] came in with an IC50 of 2 nM.

The values above are taken from patent US9376425B2, “Heterocyclic compounds as MDM2 inhibitors for the treatment of cancer” (AMGEN INC., priority 2011, dated 2016).
